The values below come from paper PMC6396940, “EhFP10: A FYVE family GEF interacts with myosin IB to regulate cytoskeletal dynamics during endocytosis in Entamoeba histolytica” (PLoS Pathogens, 2019).

Ends that are not written are not given here.

As usually defined, the Kd is a measure of binding affinity in units of concentration.

The target in test [1] is EhMySH3 (SH3 domain of EhMyosin IB) (Entamoeba histolytica, UniProt C4LUC7). The experiment in a line: SPR binding of peptides to immobilized EhMySH3 (Autolab SPR). The following applies: for Kd: SPR kinetic analysis, peptide passed over immobilized EhMySH3, 10 mM HEPES, 150 mM NaCl, 3 mM EDTA, 0.05% NP-40, pH 7.4, 25°C, text: values could not be calculated accurately (peptides about 1000 Da), read-out: Binding affinity (KD, equilibrium dissociation constant); for relative SPR binding response: 0.8 mM of each peptide passed over immobilized EhMySH3, compared with the other peptides. On the procedure: For binding studies of EhMySH3 with peptides, an Autolab SPR apparatus was used at the Advanced Instrumentation Research Facility, Jawaharlal Nehru University, New Delhi, India. Here, the 11-mercaptoundecanoic acid (11MUA) monolayer on the surface of the gold chip (Autolab) was activated by N-hydroxysuccinimide (NHS; 0.05 M)/[…] (EDC; 0.2 M). EhMySH3 protein (ligand) at a concentration of 37 μM was immobilized in channel 1 on the activated surface of the gold chip in 10 mM sodium acetate buffer (pH 5.0) up to 700 RU. During experimentation, channel 1 was used to pass the analytes (peptides) while channel 2 was used as a blank (the signals of the analyte with a ligand-free surface). After ligand immobilization, the surface was blocked with 100 mM ethanolamine at pH 8.5, followed by regeneration using 50 mM NaOH. The different peptides, each at various concentrations, were each injected at a rate of 20 μl/min across the sensor chip surface and the association kinetics and dissociation kinetics were monitored for 200 s and 100 s, respectively. All of the dilutions were done in running buffer, i.e., 10 mM HEPES, 150 mM NaCl, 3 mM EDTA, 0.05% NP-40 surfactant [pH 7.4].
All of the data were recorded at 25°C. For the evaluation of the kinetics, differential sensorgrams were analyzed using Autolab SPR Kinetic Evaluation software.

The target of test [2] is c-terminal SH3 domain of EhMyosin IB (EhMySH3) (Entamoeba histolytica). The experiment in a line: SPR; Autolab SPR; EhMySH3 immobilised (1.175 ng/mm^3), cterEhFP10 at various concentrations passed over; association 400 s, dissociation 150 s; 25 C.
The target in test [3] is filamentous rabbit muscle actin (F-actin) (rabbit) (UniProt P68135). The experiment in a line: SPR; Autolab SPR; F-actin immobilised (0.67 ng/mm^3; 50 mM sodium acetate pH 4.1, 0.05 mM CaCl2, 0.05 mM ATP, 0.125 mM DTT), cterEhFP10 at various concentrations passed over; 25 C. In general terms: In SPR one partner is held on a chip, and binding of the other changes the refractive index at the surface.

For test [4] the target is unchanged.
Test [5] has as its target c-terminal SH3 domain of EhMyosin IB (EhMySH3) (Entamoeba histolytica). In words: SPR; Autolab SPR; EhMySH3 immobilised on an 11-MUA gold chip (NHS/EDC, up to 700 RU), peptides injected at 20 ul/min; 10 mM HEPES, 150 mM NaCl, 3 mM EDTA, 0.05% NP-40, pH 7.4; 25 C.

As for SLPPKPLR [P1], the Kd in test [1] was 400 µM.
In the case of NIVPIQPPQ [P3], the Kd in test [1] was 1000 µM.
As for QHCPNVPII [P5], the Kd in test [1] was 700 µM.
For the molecule “c-terminal domain of EhFP10 (cterEhFP10) (domain or fragment)”, the values for the equilibrium dissociation constant (Kd) in test [2] and in test [3] were 0.2 µM and 0.087 µM, respectively. This molecule also yielded a thickness of actin bundles by TEM, filaments of 4 nm to 7 nm without and bundles with 10 uM to 20 uM cterEhFP10 in test [4] of 120 nm.
Consider “RPQPPTP [P4, class I peptide RPQPPTP from EhFP10]”, for which the “relative SPR binding response” value in test [1] is recorded as “weakest binding”.
For “KVAPPIPHR [P2, pseudo-symmetrical class I + II peptide … from EhFP10, co-crystallized with EhMySH3]”, in test [1], the “relative SPR binding response” value was “highest binding response”.
Regarding NIVPIQPPQ (not fully specified) [peptide P3 from Rho family GTPase], in test [5], the Kd worked out at 1000 µM.
In the case of QHCPNVPII (not fully specified) [peptide P5 from Rho family GTPase], the equilibrium dissociation constant (Kd) in test [5] was 700 µM.
